Measured values as given in ChEMBL document CHEMBL3627633, “Synthesis of potent urease inhibitors based on disulfide scaffold and their molecular docking studies” (Bioorg Med Chem, 2015).
Active and inactive are the calls of the source. No cut-off for these calls is given here.

How the values were obtained:
[1] = biological target: Carbonic anhydrase (Homo sapiens) (UniProt P00918+P43166+P00915+P07451+P23280+O43570+Q9ULX7+Q16790+P22748+Q8N1Q1+Q9Y2D0+P35218); test: Inhibition of carbonic anhydrase (unknown origin); type: protein assay
[2] = biological target: Cholinesterase (Equus caballus) (UniProt P81908); test: Inhibition of equine serum butyrylcholinesterase using […] as substrate preincubated for 15 mins followed by substrate addition measured every 1 min by Ellman's method
Cholinesterase (Equus caballus), sequence (P81908 whole entry): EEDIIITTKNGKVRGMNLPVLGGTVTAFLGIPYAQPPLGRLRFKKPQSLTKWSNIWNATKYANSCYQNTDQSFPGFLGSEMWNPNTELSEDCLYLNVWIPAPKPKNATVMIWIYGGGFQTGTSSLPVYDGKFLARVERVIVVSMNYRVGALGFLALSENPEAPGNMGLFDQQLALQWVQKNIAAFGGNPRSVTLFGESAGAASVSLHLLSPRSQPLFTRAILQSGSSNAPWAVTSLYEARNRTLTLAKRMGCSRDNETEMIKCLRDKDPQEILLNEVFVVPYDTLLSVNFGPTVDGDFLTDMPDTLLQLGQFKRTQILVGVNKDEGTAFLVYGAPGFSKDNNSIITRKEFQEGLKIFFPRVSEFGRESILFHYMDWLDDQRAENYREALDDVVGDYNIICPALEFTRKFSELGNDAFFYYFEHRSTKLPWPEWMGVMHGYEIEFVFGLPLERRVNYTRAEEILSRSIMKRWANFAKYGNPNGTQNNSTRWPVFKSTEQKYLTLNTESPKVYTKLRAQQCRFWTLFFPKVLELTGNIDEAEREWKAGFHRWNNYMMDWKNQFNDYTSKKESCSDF

Serpentes = test: Inhibition of snake venom NPP1 using bis(p-nitrophenyl)phosphate as substrate assessed as p-nitrophenol release preincubated for 30 mins by spectrophotometry
[3] = Cytotoxicity against mouse 3T3L1 cells assessed as cell viability at 1 to 20 ug/ml after 48 hrs by MTT assay; type: cell-based; details: 3t3-l1, 48 h
[4] = Cytotoxicity against Wistar rat CC1 cells assessed as cell viability at 1 to 20 ug/ml after 48 hrs by MTT assay; type: cell-based; details: cc-1, 48 h
Urease = Urease (Canavalia ensiformis, UniProt P07374); test: Inhibition of jack bean urease using urea as substrate assessed as ammonia production incubated for 15 mins by indophenol method
Urease, sequence (P07374 whole entry): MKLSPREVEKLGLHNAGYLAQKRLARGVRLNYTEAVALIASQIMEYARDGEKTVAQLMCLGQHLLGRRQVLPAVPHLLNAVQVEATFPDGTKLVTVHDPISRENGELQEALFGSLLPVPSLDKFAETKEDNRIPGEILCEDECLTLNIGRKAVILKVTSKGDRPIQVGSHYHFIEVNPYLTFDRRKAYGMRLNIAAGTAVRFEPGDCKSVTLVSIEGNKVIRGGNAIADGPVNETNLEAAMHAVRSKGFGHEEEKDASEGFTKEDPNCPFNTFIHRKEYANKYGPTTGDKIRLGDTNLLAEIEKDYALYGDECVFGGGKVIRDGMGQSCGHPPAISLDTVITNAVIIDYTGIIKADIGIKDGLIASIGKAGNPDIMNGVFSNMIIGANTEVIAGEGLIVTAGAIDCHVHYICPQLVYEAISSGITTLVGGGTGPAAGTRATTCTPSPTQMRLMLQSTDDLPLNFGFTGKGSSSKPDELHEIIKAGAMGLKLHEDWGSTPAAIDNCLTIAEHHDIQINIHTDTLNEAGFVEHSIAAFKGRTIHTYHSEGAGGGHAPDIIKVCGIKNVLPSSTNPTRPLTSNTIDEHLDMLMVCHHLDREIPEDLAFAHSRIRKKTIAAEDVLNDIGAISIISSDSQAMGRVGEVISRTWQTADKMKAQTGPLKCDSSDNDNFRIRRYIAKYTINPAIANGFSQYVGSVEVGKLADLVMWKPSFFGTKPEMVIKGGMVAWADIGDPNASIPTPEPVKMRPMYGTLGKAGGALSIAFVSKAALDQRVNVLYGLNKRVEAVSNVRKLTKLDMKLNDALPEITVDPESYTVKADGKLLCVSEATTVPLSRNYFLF

Compound | inhibition [1] | inhibition [2] | inhibition (Serpentes) | Activity [3] | Activity [4] | IC50 (Urease) [µM]
Cc1cccc(NC(=S)Nc2ccccc2SSc2ccccc2NC(=S)Nc2cccc(C)c2)c1 | inactive | inactive | inactive | Non-toxic | Non-toxic | 3.7
O=[N+]([O-])c1cccc(NC(=S)Nc2ccccc2SSc2ccccc2NC(=S)Nc2cccc([N+](=O)[O-])c2)c1 | inactive | inactive | inactive | Non-toxic | Non-toxic | 12.3
S=C(Nc1cccc(Br)c1)Nc1ccccc1SSc1ccccc1NC(=S)Nc1cccc(Br)c1 | inactive | inactive | inactive | Non-toxic | Non-toxic | 10.3
S=C(Nc1ccccc1SSc1ccccc1NC(=S)NC12CC3CC(CC(C3)C1)C2)NC12CC3CC(CC(C3)C1)C2 | inactive | inactive | inactive | Non-toxic | Non-toxic | 17.6
NC(N)=S [THIOUREA] |  |  |  |  |  | 19.5
COc1ccccc1NC(=S)Nc1ccccc1SSc1ccccc1NC(=S)Nc1ccccc1OC | inactive | inactive | inactive | Non-toxic | Non-toxic | 1.7
FC(F)(F)c1ccc(NC(=S)Nc2ccccc2SSc2ccccc2NC(=S)Nc2ccc(C(F)(F)F)cc2)cc1 | inactive | inactive | inactive | Non-toxic | Non-toxic | 1.5
O=[N+]([O-])c1ccc(NC(=S)Nc2ccccc2SSc2ccccc2NC(=S)Nc2ccc([N+](=O)[O-])cc2)cc1 | inactive | inactive | inactive | Non-toxic | Non-toxic | 6.4
S=C(Nc1ccc(Cl)cc1)Nc1ccccc1SSc1ccccc1NC(=S)Nc1ccc(Cl)cc1 | inactive | inactive | inactive | Non-toxic | Non-toxic | 1.6
Cc1ccc(NC(=S)Nc2ccccc2SSc2ccccc2NC(=S)Nc2ccc(C)cc2)cc1 | inactive | inactive | inactive | Non-toxic | Non-toxic | 1.4
S=C(Nc1ccc(Cl)c(Cl)c1)Nc1ccccc1SSc1ccccc1NC(=S)Nc1ccc(Cl)c(Cl)c1 | inactive | inactive | inactive | Non-toxic | Non-toxic | 3.2
Fc1cccc(NC(=S)Nc2ccccc2SSc2ccccc2NC(=S)Nc2cccc(F)c2)c1 | inactive | inactive | inactive | Non-toxic | Non-toxic | 1.5
S=C(Nc1ccccc1Br)Nc1ccccc1SSc1ccccc1NC(=S)Nc1ccccc1Br | inactive | inactive | inactive | Non-toxic | Non-toxic | 18.6
Cc1ccccc1NC(=S)Nc1ccccc1SSc1ccccc1NC(=S)Nc1ccccc1C | inactive | inactive | inactive | Non-toxic | Non-toxic | 1.1
COc1cccc(NC(=S)Nc2ccccc2SSc2ccccc2NC(=S)Nc2cccc(OC)c2)c1 | inactive | inactive | inactive | Non-toxic | Non-toxic | 14.6
Fc1ccccc1NC(=S)Nc1ccccc1SSc1ccccc1NC(=S)Nc1ccccc1F | inactive | inactive | inactive | Non-toxic | Non-toxic | 0.7
S=C(Nc1ccc(Br)cc1)Nc1ccccc1SSc1ccccc1NC(=S)Nc1ccc(Br)cc1 | inactive | inactive | inactive | Non-toxic | Non-toxic | 4.3
S=C(Nc1ccccc1)Nc1ccccc1SSc1ccccc1NC(=S)Nc1ccccc1 | inactive | inactive | inactive | Non-toxic | Non-toxic | 15.1
COc1ccc(NC(=S)Nc2ccccc2SSc2ccccc2NC(=S)Nc2ccc(OC)cc2)cc1 | inactive | inactive | inactive | Non-toxic | Non-toxic | 4.2
Fc1ccc(NC(=S)Nc2ccccc2SSc2ccccc2NC(=S)Nc2ccc(F)cc2)cc1 | inactive | inactive | inactive | Non-toxic | Non-toxic | 0.4
S=C(Nc1ccccc1Cl)Nc1ccccc1SSc1ccccc1NC(=S)Nc1ccccc1Cl | inactive | inactive | inactive | Non-toxic | Non-toxic | 3.4
